Like-named read-outs stand apart in the source and are kept apart here.
Experiments:
Salmonella typhi = test: Expected efficacy of antibiotic agents; assay type: cell-based; details: Gram: neg
[1] = test system: Viridans group streptococci; test: Expected efficacy of antibiotic agents; assay type: cell-based; details: Gram: pos
Streptococcus pneumoniae = test: Expected efficacy of antibiotic agents; assay type: cell-based; details: Gram: pos
Klebsiella oxytoca = test: Expected efficacy of antibiotic agents; assay type: cell-based; details: Gram: neg
Rickettsiae = assay type: cell-based
Chlamydia psittaci = assay type: cell-based
[2] = test system: Haemophilus parainfluenzae; test: Expected efficacy of antibiotic agents; assay type: cell-based; details: Gram: neg
Shigella dysenteriae = test: Expected efficacy of antibiotic agents; assay type: cell-based; details: Gram: neg
Diphtheroids = test: Expected efficacy of antibiotic agents; assay type: cell-based; details: Gram: pos
Neisseria meningitidis = test: Expected efficacy of antibiotic agents; assay type: cell-based; details: Gram: neg
Citrobacter freundii = test: Expected efficacy of antibiotic agents; assay type: cell-based; details: Gram: neg
Enterococcus faecium = test: Expected efficacy of antibiotic agents; assay type: cell-based; details: Gram: pos
Vibrio cholerae = test: Expected efficacy of antibiotic agents; assay type: cell-based; details: Gram: neg
Acinetobacter baumannii = test: Expected efficacy of antibiotic agents; assay type: cell-based; details: Gram: neg
Bacteroides fragilis = test: Expected efficacy of antibiotic agents; assay type: cell-based; details: Gram: anaer
Citrobacter diversus = test: Expected efficacy of antibiotic agents; assay type: cell-based; details: Gram: neg
[3] = test system: Methicillin resistant staph aureus (MRSA); test: Expected efficacy of antibiotic agents; assay type: cell-based; details: Gram: pos
Pseudomonas fluorescens = test: Expected efficacy of antibiotic agents; assay type: cell-based; details: Gram: neg
Corynebacterium jeikeium = test: Expected efficacy of antibiotic agents; assay type: cell-based; details: Gram: pos
[4] = test system: Klebsiella (Calymmatobacterium) granulomatis; test: Expected efficacy of antibiotic agents; assay type: cell-based; details: Gram: neg
Klebsiella pneumoniae = test: Expected efficacy of antibiotic agents; assay type: cell-based; details: Gram: neg
Chlamydia trachomatis = test: Expected efficacy of antibiotic agents; assay type: cell-based; details: Gram: n/a
[5] = test system: Corynebacterium urealyticum; test: Expected efficacy of antibiotic agents; assay type: cell-based; details: Gram: pos
Enterobacter cloacae = test: Expected efficacy of antibiotic agents; assay type: cell-based; details: Gram: neg
Escherichia coli = test: Expected efficacy of antibiotic agents; assay type: cell-based; details: Gram: neg
Yersinia pestis = assay type: cell-based
Acinetobacter lwoffii = test: Expected efficacy of antibiotic agents; assay type: cell-based; details: Gram: neg
Shigella sonnei = test: Expected efficacy of antibiotic agents; assay type: cell-based; details: Gram: neg
Peptostreptococcus = test: Expected efficacy of antibiotic agents; assay type: cell-based; details: Gram: pos
Shigella boydii = test: Expected efficacy of antibiotic agents; assay type: cell-based; details: Gram: neg
Providencia stuartii = test: Expected efficacy of antibiotic agents; assay type: cell-based; details: Gram: neg
Pseudomonas aeruginosa = test: Expected efficacy of antibiotic agents; assay type: cell-based; details: Gram: neg
Bartonella bacilliformis = test: Expected efficacy of antibiotic agents; assay type: cell-based; details: Gram: neg
Haemophilus influenzae = test: Expected efficacy of antibiotic agents; assay type: cell-based; details: Gram: neg
Morganella morganii = test: Expected efficacy of antibiotic agents; assay type: cell-based; details: Gram: neg
Moraxella catarrhalis = test: Expected efficacy of antibiotic agents; assay type: cell-based; details: Gram: neg
Clostridium perfringens = assay type: cell-based
Proteus vulgaris = test: Expected efficacy of antibiotic agents; assay type: cell-based; details: Gram: neg
Enterobacter sakazakii = test: Expected efficacy of antibiotic agents; assay type: cell-based; details: Gram: neg
[6] = test system: Staphylococcus epidermidis; test: Expected efficacy of antibiotic agents; assay type: cell-based; details: Gram: pos
Enterobacter aerogenes = test: Expected efficacy of antibiotic agents; assay type: cell-based; details: Gram: neg
Francisella tularensis = assay type: cell-based
Mycoplasma pneumoniae = test: Expected efficacy of antibiotic agents; assay type: cell-based; details: Gram: n/a
Brucella species = assay type: cell-based
Streptococcus pyogenes = test: Expected efficacy of antibiotic agents; assay type: cell-based; details: Gram: pos
Clostridium difficile = test: Expected efficacy of antibiotic agents; assay type: cell-based; details: Gram: anaer
Neisseria gonorrhoeae = test: Expected efficacy of antibiotic agents; assay type: cell-based; details: Gram: neg
[7] = test system: Acinetobacter calcoaceticus; test: Expected efficacy of antibiotic agents; assay type: cell-based; details: Gram: neg
Streptococcus agalactiae = test: Expected efficacy of antibiotic agents; assay type: cell-based; details: Gram: pos
Shigella flexneri = test: Expected efficacy of antibiotic agents; assay type: cell-based; details: Gram: neg
Bordetella pertussis = test: Expected efficacy of antibiotic agents; assay type: cell-based; details: Gram: neg
Enterococcus faecalis = test: Expected efficacy of antibiotic agents; assay type: cell-based; details: Gram: pos
Serratia marcescens = test: Expected efficacy of antibiotic agents; assay type: cell-based; details: Gram: neg
Providencia rettgeri = test: Expected efficacy of antibiotic agents; assay type: cell-based; details: Gram: neg
Legionella pneumophila = assay type: cell-based
Proteus mirabilis = test: Expected efficacy of antibiotic agents; assay type: cell-based; details: Gram: neg
[8] = test system: Staphylococcus aureus (MSSA); test: Expected efficacy of antibiotic agents; assay type: cell-based; details: Gram: pos
Chlamydia pneumoniae = test: Expected efficacy of antibiotic agents; assay type: cell-based; details: Gram: n/a
Campylobacter jejuni = test: Expected efficacy of antibiotic agents; assay type: cell-based; details: Gram: neg
Haemophilus ducreyi = test: Expected efficacy of antibiotic agents; assay type: cell-based; details: Gram: neg
[9] = test system: gram-positive staphylococci and streptococci; details: general description, no test given; cited from earlier work
Cryptococcus neoformans = test: Expected efficacy of antifungal agents; assay type: cell-based
Blastomyces dermatitidis = test: Expected efficacy of antifungal agents; assay type: cell-based
Candida species = test: Expected efficacy of antifungal agents; assay type: cell-based
Coccidioides immitis = assay type: cell-based; details: expected efficacy
Aspergillus flavus = test: Expected efficacy of antifungal agents; assay type: cell-based
Histoplasma capsulatum = assay type: cell-based; details: expected efficacy
Aspergillus fumigatus = test: Expected efficacy of antifungal agents; assay type: cell-based

CN[C@H](CC(C)C)C(=O)N[C@H]1C(=O)N[C@@H](CC(N)=O)C(=O)N[C@H]2C(=O)N[C@H]3C(=O)N[C@H](C(=O)N[C@H](C(=O)O)c4cc(O)cc(O)c4-c4cc3ccc4O)[C@H](O)c3ccc(c(Cl)c3)Oc3cc2cc(c3O[C@@H]2O[C@H](CO)[C@@H](O)[C@H](O)[C@H]2O[C@H]2C[C@](C)(N)[C@H](O)[C@H](C)O2)Oc2ccc(cc2Cl)[C@H]1O [Vancomycin]
efficacy against Salmonella typhi (Salmonella typhi): no | efficacy against Viridans group streptococci [1]: yes | efficacy against Streptococcus pneumoniae (Streptococcus pneumoniae): yes | efficacy against Klebsiella oxytoca (Klebsiella oxytoca): no | efficacy against Rickettsiae (Rickettsiae): no | efficacy against Chlamydia psittaci (Chlamydia psittaci): no | efficacy against Haemophilus parainfluenzae [2]: no | efficacy against Shigella dysenteriae (Shigella dysenteriae): no | efficacy against Diphtheroids (Diphtheroids): yes | efficacy against Neisseria meningitidis (Neisseria meningitidis): no | efficacy against Citrobacter freundii (Citrobacter freundii): no | efficacy against Enterococcus faecium (Enterococcus faecium): yes, not VRE | efficacy against Vibrio cholerae (Vibrio cholerae): no | efficacy against Acinetobacter baumannii (Acinetobacter baumannii): no | efficacy against Bacteroides fragilis (Bacteroides fragilis): no | efficacy against Citrobacter diversus (Citrobacter diversus): no | efficacy against Methicillin resistant staph aureus (MRSA) [3]: yes | efficacy against Pseudomonas fluorescens (Pseudomonas fluorescens): no | efficacy against Corynebacterium jeikeium (Corynebacterium jeikeium): yes | efficacy against Klebsiella (Calymmatobacterium) granulomatis [4]: no | efficacy against Klebsiella pneumoniae (Klebsiella pneumoniae): no | efficacy against Chlamydia trachomatis (Chlamydia trachomatis): no | efficacy against Corynebacterium urealyticum [5]: yes | efficacy against Enterobacter cloacae (Enterobacter cloacae): no | efficacy against Escherichia coli (Escherichia coli): no | efficacy against Yersinia pestis (Yersinia pestis): no | efficacy against Acinetobacter lwoffii (Acinetobacter lwoffii): no | efficacy against Shigella sonnei (Shigella sonnei): no | efficacy against Peptostreptococcus (Peptostreptococcus): yes | efficacy against Shigella boydii (Shigella boydii): no | efficacy against Providencia stuartii (Providencia stuartii): no | efficacy against Pseudomonas aeruginosa (Pseudomonas aeruginosa): no | efficacy against Bartonella bacilliformis (Bartonella bacilliformis): no | efficacy against Haemophilus influenzae (Haemophilus influenzae): no | efficacy against Morganella morganii (Morganella morganii): no | efficacy against Moraxella catarrhalis (Moraxella catarrhalis): no | efficacy against Clostridium perfringens (Clostridium perfringens): no | efficacy against Proteus vulgaris (Proteus vulgaris): no | efficacy against Enterobacter sakazakii (Enterobacter sakazakii): no | efficacy against Staphylococcus epidermidis [6]: yes | efficacy against Enterobacter aerogenes (Enterobacter aerogenes): no | efficacy against Francisella tularensis (Francisella tularensis): no | efficacy against Mycoplasma pneumoniae (Mycoplasma pneumoniae): no | efficacy against Brucella species (Brucella species): no | efficacy against Streptococcus pyogenes (Streptococcus pyogenes): yes | efficacy against Clostridium difficile (Clostridium difficile): yes | efficacy against Neisseria gonorrhoeae (Neisseria gonorrhoeae): no | efficacy against Acinetobacter calcoaceticus [7]: no | efficacy against Streptococcus agalactiae (Streptococcus agalactiae): yes | efficacy against Shigella flexneri (Shigella flexneri): no | efficacy against Bordetella pertussis (Bordetella pertussis): no | efficacy against Enterococcus faecalis (Enterococcus faecalis): yes | efficacy against Serratia marcescens (Serratia marcescens): no | efficacy against Providencia rettgeri (Providencia rettgeri): no | efficacy against Legionella pneumophila (Legionella pneumophila): no | efficacy against Proteus mirabilis (Proteus mirabilis): no | efficacy against Staphylococcus aureus (MSSA) [8]: yes | efficacy against Chlamydia pneumoniae (Chlamydia pneumoniae): no | efficacy against Campylobacter jejuni (Campylobacter jejuni): no | efficacy against Haemophilus ducreyi (Haemophilus ducreyi): no

C/C(=C\C(=O)OCCCCCCCCC(=O)O)C[C@@H]1OC[C@H](C[C@@H]2O[C@H]2[C@@H](C)[C@H](C)O)[C@@H](O)[C@H]1O [Bactroban, Mupirocin]
efficacy against Salmonella typhi (Salmonella typhi): no | efficacy against Klebsiella oxytoca (Klebsiella oxytoca): no | efficacy against Rickettsiae (Rickettsiae; expected efficacy, Gram: neg): no | efficacy against Shigella dysenteriae (Shigella dysenteriae): no | efficacy against Neisseria meningitidis (Neisseria meningitidis): no | efficacy against Citrobacter freundii (Citrobacter freundii): no | efficacy against Vibrio cholerae (Vibrio cholerae): no | efficacy against Acinetobacter baumannii (Acinetobacter baumannii): no | efficacy against Citrobacter diversus (Citrobacter diversus): no | efficacy against Methicillin resistant staph aureus (MRSA) [3]: yes | efficacy against Pseudomonas fluorescens (Pseudomonas fluorescens): no | efficacy against Corynebacterium jeikeium (Corynebacterium jeikeium): no | efficacy against Klebsiella (Calymmatobacterium) granulomatis [4]: no | efficacy against Klebsiella pneumoniae (Klebsiella pneumoniae): no | efficacy against Corynebacterium urealyticum [5]: no | efficacy against Enterobacter cloacae (Enterobacter cloacae): no | efficacy against Escherichia coli (Escherichia coli): no | efficacy against Yersinia pestis (Yersinia pestis; expected efficacy, Gram: neg): no | activity against gram-positive staphylococci and streptococci [9]: excellent activity | efficacy against Acinetobacter lwoffii (Acinetobacter lwoffii): no | efficacy against Shigella sonnei (Shigella sonnei): no | efficacy against Shigella boydii (Shigella boydii): no | efficacy against Providencia stuartii (Providencia stuartii): no | efficacy against Pseudomonas aeruginosa (Pseudomonas aeruginosa): no | efficacy against Bartonella bacilliformis (Bartonella bacilliformis): no | efficacy against Haemophilus influenzae (Haemophilus influenzae): no | efficacy against Morganella morganii (Morganella morganii): no | efficacy against Moraxella catarrhalis (Moraxella catarrhalis): no | efficacy against Clostridium perfringens (Clostridium perfringens; expected efficacy, Gram: anaer): no | efficacy against Proteus vulgaris (Proteus vulgaris): no | efficacy against Enterobacter sakazakii (Enterobacter sakazakii): no | efficacy against Enterobacter aerogenes (Enterobacter aerogenes): no | efficacy against Francisella tularensis (Francisella tularensis; expected efficacy, Gram: neg): no | efficacy against Brucella species (Brucella species; expected efficacy, Gram: neg): no | efficacy against Streptococcus pyogenes (Streptococcus pyogenes): yes | efficacy against Neisseria gonorrhoeae (Neisseria gonorrhoeae): no | efficacy against Acinetobacter calcoaceticus [7]: no | efficacy against Shigella flexneri (Shigella flexneri): no | efficacy against Bordetella pertussis (Bordetella pertussis): no | efficacy against Serratia marcescens (Serratia marcescens): no | efficacy against Providencia rettgeri (Providencia rettgeri): no | efficacy against Legionella pneumophila (Legionella pneumophila; expected efficacy, Gram: neg): no | efficacy against Proteus mirabilis (Proteus mirabilis): no | efficacy against Staphylococcus aureus (MSSA) [8]: yes | efficacy against Campylobacter jejuni (Campylobacter jejuni): no | efficacy against Haemophilus ducreyi (Haemophilus ducreyi): no

OC(Cn1cncn1)(Cn1cncn1)c1ccc(F)cc1F [Fluconazole]
efficacy against Cryptococcus neoformans (Cryptococcus neoformans): yes | efficacy against Blastomyces dermatitidis (Blastomyces dermatitidis): yes | efficacy against Candida species (Candida species): yes | efficacy against Coccidioides immitis (Coccidioides immitis): yes | efficacy against Aspergillus flavus (Aspergillus flavus): yes | efficacy against Histoplasma capsulatum (Histoplasma capsulatum): yes | efficacy against Aspergillus fumigatus (Aspergillus fumigatus): yes

Reference: patent publication US9707229B2, “Compositions and methods for treating an infection” (CMPD LICENSING, LLC, priority 2015, dated 2017)
